Measured values taken from US20160009693A1, “HERBICIDAL COMPOUNDS” (SYNGENTA LIMITED, priority 2013, published 2016).

Experiments:
Assay type in all cases: in vivo
Conditions in all cases: evaluated after 13 days
[1] = system: Alopecurus myosuroides (ALOMY); assay: Herbicidal glasshouse test, pre-emergence, ALOMY
[2] = system: Setaria faberi (SETFA); assay: Herbicidal glasshouse test, pre-emergence, SETFA
[3] = system: Echinochloa crus-galli (ECHCG); assay: Herbicidal glasshouse test, pre-emergence, ECHCG
In short: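 Echinochloa crus-galli seeds were sown in standard soil in pots and grown for one day in a glasshouse at 24/16° C. day/night, 14 hours light and 65% humidity. Pre-emergence spraying used an aqueous solution of the active ingredient in acetone/water (50:50) with 0.5% Tween 20. Damage was scored after 13 days on a five point scale.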

[4] = system: Solanum nigrum (SOLNI); assay: Herbicidal glasshouse test, pre-emergence, SOLNI
In short: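 Seeds of Solanum nigrum were sown in pots of standard soil and kept one day in a glasshouse at 24/16° C. day/night, 14 hours light and 65% humidity. For the pre-emergence treatment they were then sprayed with an aqueous solution of the active ingredient formulated in acetone/water (50:50) containing 0.5% Tween 20. Plant damage was rated after 13 days.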

[5] = system: Amaranthus retoflexus (AMARE); assay: Herbicidal glasshouse test, pre-emergence, AMARE
In short: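 Amaranthus retoflexus seeds were sown in pots of standard soil and kept one day in a glasshouse at 24/16° C. (day/night), 14 hours light and 65% humidity. They were then sprayed pre-emergence with the active ingredient in acetone/water (50:50) containing 0.5% Tween 20. Plants grew under the same conditions, watered twice daily, and percentage damage was scored after 13 days.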

[6] = system: Ipomoea hederacea (IPOHE); assay: Herbicidal glasshouse test, pre-emergence, IPOHE
[7] = system: Alopecurus myosuroides (ALOMY); assay: Herbicidal glasshouse test, post-emergence, ALOMY
[8] = system: Setaria faberi (SETFA); assay: Herbicidal glasshouse test, post-emergence, SETFA
In short: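 Setaria faberi seeds were sown in standard soil in pots and grown for 8 days in a glasshouse at 24/16° C. day/night, 14 hours light and 65% humidity. The seedlings were then sprayed post-emergence with the active ingredient in acetone/water (50:50) containing 0.5% Tween 20. Afterwards they were kept under the same conditions, watered twice daily, and scored for percentage damage on a five point scale.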

[9] = system: Echinochloa crus-galli (ECHCG); assay: Herbicidal glasshouse test, post-emergence, ECHCG
In short: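 Echinochloa crus-galli (ECHCG) seeds were sown in standard soil in pots and grown for 8 days in a glasshouse at 24/16° C. day/night, 14 hours light and 65% humidity. The young plants were then sprayed post-emergence with the active ingredient in acetone / water (50:50) containing 0.5% Tween 20. Damage was scored after 13 days.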

[10] = system: Solanum nigrum (SOLNI); assay: Herbicidal glasshouse test, post-emergence, SOLNI
[11] = system: Amaranthus retoflexus (AMARE); assay: Herbicidal glasshouse test, post-emergence, AMARE
In short: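 Amaranthus retoflexus (AMARE) seeds were sown in pots of standard soil and grown in a glasshouse at 24/16° C. day/night, 14 hours light and 65% humidity for 8 days. The plants were then sprayed post-emergence with an aqueous solution of the active ingredient in acetone/water (50:50) with 0.5% Tween 20. Damage was scored after 13 days.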

[12] = system: Ipomoea hederacea (IPOHE); assay: Herbicidal glasshouse test, post-emergence, IPOHE

Row | SMILES | PRE Application ALOMY, percentage damage (five point scale) ([1]; applied at 1000 g/h) | PRE Application SETFA, percentage damage (five point scale) ([2]; applied at 1000 g/h) | PRE Application ECHCG, percentage damage (five point scale) ([3]; applied at 1000 g/h) | PRE Application SOLNI, percentage damage (five point scale) ([4]; applied at 1000 g/h) | PRE Application AMARE, percentage damage (five point scale) ([5]; applied at 1000 g/h) | PRE Application IPOHE, percentage damage (five point scale) ([6]; applied at 1000 g/h) | POST Application ALOMY, percentage damage (five point scale) ([7]; applied at 1000 g/h) | POST Application SETFA, percentage damage (five point scale) ([8]; applied at 1000 g/h) | POST Application ECHCG, percentage damage (five point scale) ([9]; applied at 1000 g/h) | POST Application SOLNI, percentage damage (five point scale) ([10]; applied at 1000 g/h) | POST Application AMARE, percentage damage (five point scale) ([11]; applied at 1000 g/h) | POST Application IPOHE, percentage damage (five point scale) ([12]; applied at 1000 g/h) | further results
1 | Cn1nnnc1NC(=O)c1nn(C)c(=O)n(-c2cc(F)cc(F)c2)c1=O [Compound 1.042] | 5 (5=80-100%) | 5 (5=80-100%) | 5 (5=80-100%) | 5 (5=80-100%) | 5 (5=80-100%) | 5 (5=80-100%) | 5 (5=80-100%) | 5 (5=80-100%) | 5 (5=80-100%) | 5 (5=80-100%) | 5 (5=80-100%) | 5 (5=80-100%) | 
2 | CSc1cccc(-n2c(=O)c(C(=O)Nc3nnnn3C)nn(C)c2=O)c1 [Compound 1.043] | 4 (4=60-79%) | 2 (2=20-39%) | 5 (5=80-100%) | 5 (5=80-100%) | 5 (5=80-100%) | 5 (5=80-100%) | 5 (5=80-100%) | 4 (4=60-79%) | 5 (5=80-100%) | 5 (5=80-100%) | 5 (5=80-100%) | 5 (5=80-100%) | 
3 | Cn1nnnc1NC(=O)c1nn(C)c(=O)n(-c2cc(F)c(F)c(F)c2)c1=O [Compound 1.044] | 5 (5=80-100%) | 5 (5=80-100%) | 5 (5=80-100%) | 5 (5=80-100%) | 5 (5=80-100%) | 5 (5=80-100%) | 5 (5=80-100%) | 5 (5=80-100%) | 5 (5=80-100%) | 5 (5=80-100%) | 5 (5=80-100%) | 5 (5=80-100%) | 
4 | COc1ccc(-n2c(=O)c(C(=O)Nc3nnnn3C)nn(C)c2=O)cc1Cl [Compound 1.045] | 5 (5=80-100%) | 5 (5=80-100%) | 5 (5=80-100%) | 5 (5=80-100%) | 5 (5=80-100%) | 5 (5=80-100%) | 5 (5=80-100%) | 5 (5=80-100%) | 5 (5=80-100%) | 5 (5=80-100%) | 5 (5=80-100%) | 5 (5=80-100%) | 
5 | CC(C)c1ccc(-n2c(=O)c(C(=O)Nc3nnnn3C)nn(C)c2=O)cc1 [Compound 1.046] | 5 (5=80-100%) | 5 (5=80-100%) | 5 (5=80-100%) | 5 (5=80-100%) | 5 (5=80-100%) | 5 (5=80-100%) | 5 (5=80-100%) | 5 (5=80-100%) | 5 (5=80-100%) | 5 (5=80-100%) | 5 (5=80-100%) | 5 (5=80-100%) | 
6 | Cn1nnnc1NC(=O)c1nn(C)c(=O)n(-c2ccc(Cl)c(C#N)c2)c1=O [Compound 1.047] |  |  |  |  |  |  |  |  |  |  |  |  | PRE Application ALOMY, percentage damage (five point scale) ([1]; applied at 250 g/ha): 1 (1=0-19%); PRE Application SETFA, percentage damage (five point scale) ([2]; applied at 250 g/ha): 1 (1=0-19%); PRE Application ECHCG, percentage damage (five point scale) ([3]; applied at 250 g/ha): 3 (3=40-59%); PRE Application SOLNI, percentage damage (five point scale) ([4]; applied at 250 g/ha): 5 (5=80-100%); PRE Application AMARE, percentage damage (five point scale) ([5]; applied at 250 g/ha): 5 (5=80-100%); PRE Application IPOHE, percentage damage (five point scale) ([6]; applied at 250 g/ha): 5 (5=80-100%); POST Application ALOMY, percentage damage (five point scale) ([7]; applied at 250 g/ha): 3 (3=40-59%); POST Application SETFA, percentage damage (five point scale) ([8]; applied at 250 g/ha): 1 (1=0-19%); POST Application ECHCG, percentage damage (five point scale) ([9]; applied at 250 g/ha): 3 (3=40-59%); POST Application SOLNI, percentage damage (five point scale) ([10]; applied at 250 g/ha): 5 (5=80-100%); POST Application AMARE, percentage damage (five point scale) ([11]; applied at 250 g/ha): 5 (5=80-100%); POST Application IPOHE, percentage damage (five point scale) ([12]; applied at 250 g/ha): 4 (4=60-79%)
7 | COc1cc(-n2c(=O)c(C(=O)Nc3nnnn3C)nn(C)c2=O)ccc1F [Compound 1.048] | 5 (5=80-100%) | 5 (5=80-100%) | 5 (5=80-100%) | 5 (5=80-100%) | 5 (5=80-100%) | 5 (5=80-100%) | 5 (5=80-100%) | 5 (5=80-100%) | 5 (5=80-100%) | 5 (5=80-100%) | 5 (5=80-100%) | 5 (5=80-100%) | 
8 | CCCn1nnnc1NC(=O)c1nn(C)c(=O)n(-c2ccc(F)cc2)c1=O [Compound 1.049] | 5 (5=80-100%) | 5 (5=80-100%) | 5 (5=80-100%) | 5 (5=80-100%) | 5 (5=80-100%) | 5 (5=80-100%) | 5 (5=80-100%) | 5 (5=80-100%) | 5 (5=80-100%) | 5 (5=80-100%) | 5 (5=80-100%) | 5 (5=80-100%) | 
